Test results published in the NIST ThermoML archive (doi:10.1016/j.jct.2016.03.028).
± gives the expanded uncertainty stated by the source.

Assays:
[1] = xn = mol fraction of the nth substance listed; conditions: Liquid; for speed of sound: 100 kPa, Frequency=3 MHz, Sing-around technique in a fixed-path interferometer; for mass density: 101.3 kPa, Vibrating tube method
[2] = refractive index (Na D-line) (dimensionless); xn = mol fraction of the nth substance listed; conditions: 100 kPa, Liquid, Standard Abbe refractometry

CCCOCCO [2-propoxyethanol] + CCOS(=O)(=O)[O-].CCn1cc[n+](C)c1
Conditions	mass density, [1] [kg/m3]	refractive index, [2]	speed of sound, [1] [m/s]
298.15 K, x2 = 0	908.31 ± 2	1.41255 ± 0.002	1299.9 ± 1.5
298.15 K, x2 = 0.0496	936.15 ± 2	1.41807 ± 0.002	1322.2 ± 1.6
298.15 K, x2 = 0.0901	957.3 ± 2	1.42234 ± 0.002	1339.6 ± 1.6
298.15 K, x2 = 0.1345	979.08 ± 2	1.42679 ± 0.002	1358 ± 1.6
298.15 K, x2 = 0.1738	997.17 ± 2	1.43052 ± 0.002	1374 ± 1.6
298.15 K, x2 = 0.2568	1032.34 ± 2	1.43781 ± 0.002	1407.7 ± 1.6
298.15 K, x2 = 0.3477	1066.65 ± 2	1.44491 ± 0.002	1444.5 ± 1.6
298.15 K, x2 = 0.4406	1097.96 ± 2	1.45131 ± 0.002	1482.1 ± 1.6
298.15 K, x2 = 0.5477	1130.29 ± 2	1.45778 ± 0.002	1525.4 ± 1.6
298.15 K, x2 = 0.6478	1157.57 ± 2	1.46309 ± 0.002	1565.2 ± 1.6
298.15 K, x2 = 0.7729	1188.39 ± 2	1.46902 ± 0.002	1612.3 ± 1.6
298.15 K, x2 = 0.8263	1200.6 ± 2	1.4714 ± 0.002	1630.9 ± 1.6
298.15 K, x2 = 0.8757	1211.4 ± 2	1.47357 ± 0.002	1647 ± 1.6
298.15 K, x2 = 0.9346	1223.63 ± 2	1.47615 ± 0.002	1664.4 ± 1.6
308.15 K, x2 = 0	899.5 ± 2	1.40814 ± 0.002	1265 ± 1.5
308.15 K, x2 = 0.0496	927.63 ± 2	1.41391 ± 0.002	1288.6 ± 1.5
308.15 K, x2 = 0.0901	948.98 ± 2	1.41835 ± 0.002	1306.8 ± 1.6
308.15 K, x2 = 0.1345	970.94 ± 2	1.42296 ± 0.002	1326.1 ± 1.6
308.15 K, x2 = 0.1738	989.17 ± 2	1.42682 ± 0.002	1342.8 ± 1.6
308.15 K, x2 = 0.2568	1024.6 ± 2	1.43433 ± 0.002	1377.8 ± 1.6
308.15 K, x2 = 0.3477	1059.1 ± 2	1.44162 ± 0.002	1415.6 ± 1.6
308.15 K, x2 = 0.4406	1090.57 ± 2	1.44817 ± 0.002	1454.2 ± 1.6
308.15 K, x2 = 0.5477	1123.06 ± 2	1.45477 ± 0.002	1498.4 ± 1.6
308.15 K, x2 = 0.6478	1150.45 ± 2	1.4602 ± 0.002	1539 ± 1.6
308.15 K, x2 = 0.7729	1181.41 ± 2	1.46625 ± 0.002	1587 ± 1.6
308.15 K, x2 = 0.8263	1193.67 ± 2	1.46868 ± 0.002	1606 ± 1.6
308.15 K, x2 = 0.8757	1204.51 ± 2	1.47089 ± 0.002	1622.3 ± 1.6
308.15 K, x2 = 0.9346	1216.76 ± 2	1.4735 ± 0.002	1639.9 ± 1.6
318.15 K, x2 = 0	890.56 ± 2	1.40355 ± 0.002	1230.1 ± 1.5
318.15 K, x2 = 0.0496	919 ± 2	1.40953 ± 0.002	1254.9 ± 1.5
318.15 K, x2 = 0.0901	940.58 ± 2	1.41413 ± 0.002	1274 ± 1.5
318.15 K, x2 = 0.1345	962.75 ± 2	1.41891 ± 0.002	1294.2 ± 1.5
318.15 K, x2 = 0.1738	981.14 ± 2	1.4229 ± 0.002	1311.6 ± 1.6
318.15 K, x2 = 0.2568	1016.84 ± 2	1.43065 ± 0.002	1347.8 ± 1.6
318.15 K, x2 = 0.3477	1051.57 ± 2	1.43817 ± 0.002	1386.9 ± 1.6
318.15 K, x2 = 0.4406	1083.21 ± 2	1.44492 ± 0.002	1426.5 ± 1.6
318.15 K, x2 = 0.5477	1115.85 ± 2	1.45172 ± 0.002	1471.8 ± 1.6
318.15 K, x2 = 0.6478	1143.37 ± 2	1.45729 ± 0.002	1513.2 ± 1.6
318.15 K, x2 = 0.7729	1174.46 ± 2	1.46348 ± 0.002	1562 ± 1.6
318.15 K, x2 = 0.8263	1186.78 ± 2	1.46595 ± 0.002	1581.3 ± 1.6
318.15 K, x2 = 0.8757	1197.67 ± 2	1.46818 ± 0.002	1597.9 ± 1.6
318.15 K, x2 = 0.9346	1209.98 ± 2	1.47081 ± 0.002	1615.7 ± 1.6
328.15 K, x2 = 0	881.49 ± 2	1.39908 ± 0.002	1195.8 ± 1.5
328.15 K, x2 = 0.0496	910.28 ± 2	1.4053 ± 0.002	1221.5 ± 1.5
328.15 K, x2 = 0.0901	932.1 ± 2	1.41007 ± 0.002	1241.4 ± 1.5
328.15 K, x2 = 0.1345	954.51 ± 2	1.41501 ± 0.002	1262.4 ± 1.5
328.15 K, x2 = 0.1738	973.08 ± 2	1.41912 ± 0.002	1280.5 ± 1.5
328.15 K, x2 = 0.2568	1009.08 ± 2	1.42711 ± 0.002	1318.1 ± 1.6
328.15 K, x2 = 0.3477	1044.05 ± 2	1.43483 ± 0.002	1358.5 ± 1.6
328.15 K, x2 = 0.4406	1075.88 ± 2	1.44175 ± 0.002	1399.3 ± 1.6
328.15 K, x2 = 0.5477	1108.69 ± 2	1.4487 ± 0.002	1445.6 ± 1.6
328.15 K, x2 = 0.6478	1136.34 ± 2	1.45439 ± 0.002	1487.8 ± 1.6
328.15 K, x2 = 0.7729	1167.58 ± 2	1.46071 ± 0.002	1537.5 ± 1.6
328.15 K, x2 = 0.8263	1179.94 ± 2	1.46322 ± 0.002	1557 ± 1.6
328.15 K, x2 = 0.8757	1190.88 ± 2	1.46549 ± 0.002	1573.9 ± 1.6
328.15 K, x2 = 0.9346	1203.26 ± 2	1.46815 ± 0.002	1591.9 ± 1.6
